Assays:
Format in all cases: in vivo
[1] = tested on: cocklebur (Xanthium strumarium); test: Test B pre-/postemergence plant response; details: for Cocklebur plant response rating (0 to 100 scale): 0 is no effect, 13 to 15 days
Summary of the method: (§1)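 Steps: sow seed in loam–sand soil and spray preemergence, or grow plants in peat-based medium to 1–4 leaves (2–18 cm) and spray postemergence; formulation is non-phytotoxic solvent plus surfactant; hold in greenhouse 13–15 days; score visually vs controls, 0 = no effect, 100 = complete control.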

[2] = tested on: pigweed (Amaranthus retroflexus); test: Test B pre-/postemergence plant response; details: for Pigweed plant response rating (0 to 100 scale): 0 is no effect, 13 to 15 days
Summary of the method: as §1

[3] = tested on: downy bromegrass (Bromus tectorum); test: Test B pre-/postemergence plant response; details: for Bromegrass, Downy plant response rating (0 to 100 scale): 0 is no effect, 13 to 15 days
Summary of the method: as §1

[4] = tested on: giant foxtail (Setaria faberii); test: Test B pre-/postemergence plant response; details: for Foxtail, Giant plant response rating (0 to 100 scale): 0 is no effect, 13 to 15 days
Summary of the method: as §1

[5] = tested on: wheat (Triticum aestivum); test: Test B pre-/postemergence plant response; details: for Wheat plant response rating (0 to 100 scale): 0 is no effect, 13 to 15 days
Summary of the method: as §1

[6] = tested on: morningglory (Ipomoea coccinea); test: Test B pre-/postemergence plant response; details: for Morningglory plant response rating (0 to 100 scale): 0 is no effect, 13 to 15 days
Summary of the method: as §1

[7] = tested on: green foxtail (Setaria viridis); test: Test B pre-/postemergence plant response; details: for Foxtail, Green plant response rating (0 to 100 scale): 0 is no effect, 13 to 15 days
Summary of the method: as §1

[8] = tested on: goosegrass (Eleusine indica); test: Test B pre-/postemergence plant response; details: for Goosegrass plant response rating (0 to 100 scale): 0 is no effect, 13 to 15 days
Summary of the method: as §1

kochia (Kochia scoparia) = test: Test B pre-/postemergence plant response; details: for Kochia plant response rating (0 to 100 scale): 0 is no effect, 13 to 15 days
Summary of the method: as §1

[9] = tested on: morningglory (Ipomoea spp.); test: Test A pre-/postemergence plant response
Summary of the method: (§2)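 Injury scores (0, no effect; 100, complete control) come from visual comparison with untreated controls roughly ten days post-treatment. Test chemicals in a surfactant-containing non-phytotoxic solvent were applied as a directed soil spray preemergence and to one- to two-leaf seedlings postemergence.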

[10] = tested on: wheat (Triticum aestivum); test: Test A pre-/postemergence plant response
Summary of the method: as §2

[11] = tested on: velvetleaf (Abutilon theophrasti); test: Test A pre-/postemergence plant response
Summary of the method: as §2

[12] = tested on: large crabgrass (Digitaria sanguinalis); test: Test A pre-/postemergence plant response
Summary of the method: as §2

[13] = 31 g ai/ha, postemergence, scale 0 to 100, 0 is no effect, 100 is complete control
[14] = 62 g ai/ha, postemergence, 100 is complete control
[15] = 250 g ai/ha, Preemergence, 0 to 100 scale
[16] = Postemergence, 125 g ai/ha, visual rating after 13 to 15 days, scale 0 (no effect) to 100 (complete control)
[17] = Postemergence, 250 g ai/ha, scale 0 to 100 (0 no effect, 100 complete control)
[18] = Preemergence, 31 g ai/ha, scale 0 to 100 (0 no effect, 100 complete control)
[19] = Preemergence, 62 g ai/ha, scale 0 to 100, 0 no effect, 100 complete control
[20] = Preemergence, 125 g ai/ha, scale 0 to 100, 0 no effect, 100 complete control
[21] = Postemergence, 125 g ai/ha, visual injury, 0 to 100 scale (0 no effect, 100 complete control), approx. ten days
[22] = Postemergence, 500 g ai/ha, 0 to 100 scale, 0 = no effect, 100 = complete control, approx. ten days
[23] = Preemergence, 125 g ai/ha, 0 to 100 scale, 0 = no effect, 100 = complete control
[24] = Preemergence, 500 g ai/ha, visual injury, 0 to 100 scale (0 no effect, 100 complete control), approx. ten days
[25] = 16 g ai/ha, Postemergence, 0 to 100 scale
[26] = Preemergence, 16 g ai/ha, scale 0 to 100, 0 no effect, 100 complete control

CC(C)Cc1ncc(C(=O)C2=C(O)CCCC2=O)c(=O)n1-c1ccccc1 [Compound 68]
75: Cocklebur plant response rating (0 to 100 scale) [1, 14] | Plant response rating, Foxtail, Giant [4, 15]
95: Pigweed plant response rating (0 to 100 scale) [2, 14] | Plant response rating, Pigweed [2, 18] | Plant response rating, Foxtail, Green [7, 17] | Plant response rating, Goosegrass [8, 17] | Plant response rating, Goosegrass [8, 19] | Plant response rating, Kochia (kochia (Kochia scoparia); [15]) | Plant response rating, Kochia (kochia (Kochia scoparia); [16]) | Plant response rating, Kochia (kochia (Kochia scoparia); [20])
80: Plant response rating, Cocklebur [1, 15] | Foxtail, Giant plant response rating (0 to 100 scale) [4, 14] | Plant response rating, Morningglory [6, 13] | Plant response rating, Goosegrass [8, 18] | Plant response rating, Kochia (kochia (Kochia scoparia); [18]) | Plant response rating, Kochia (kochia (Kochia scoparia); [19]) | Crabgrass, Large plant response rating [12, 21]
50: Plant response rating, Morningglory [9, 24]
0: Plant response rating, Cocklebur [1, 18] | Plant response rating, Bromegrass, Downy [3, 18] | Plant response rating, Bromegrass, Downy [3, 19] | Plant response rating, Bromegrass, Downy [3, 20] | Plant response rating, Foxtail, Giant [4, 18] | Plant response rating, Wheat [5, 18] | Plant response rating, Wheat [5, 19] | Plant response rating, Wheat [5, 20] | Plant response rating, Morningglory [6, 18] | Plant response rating, Foxtail, Green [7, 18] | Wheat plant response rating [10, 21] | Plant response rating, Wheat [10, 22] | Plant response rating, Wheat [10, 23] | Plant response rating, Wheat [10, 24]
70: Goosegrass plant response rating (0 to 100 scale) [8, 14] | Plant response rating, Kochia (kochia (Kochia scoparia); [13]) | Plant response rating, Velvetleaf [11, 23] | Plant response rating, Crabgrass, Large [12, 23]
100: Plant response rating, Pigweed [2, 16] | Plant response rating, Pigweed [2, 17] | Plant response rating, Pigweed [2, 20] | Plant response rating, Morningglory [6, 17] | Velvetleaf plant response rating [11, 21] | Plant response rating, Velvetleaf [11, 22] | Plant response rating, Velvetleaf [11, 24] | Plant response rating, Crabgrass, Large [12, 22] | Plant response rating, Crabgrass, Large [12, 24]
98: Plant response rating, Pigweed [2, 19] | Plant response rating, Morningglory [6, 16] | Plant response rating, Goosegrass [8, 15] | Plant response rating, Goosegrass [8, 20] | Plant response rating, Kochia (kochia (Kochia scoparia); [17])
25: Plant response rating, Cocklebur [1, 13] | Plant response rating, Bromegrass, Downy [3, 16] | Plant response rating, Foxtail, Green [7, 20]
85: Plant response rating, Pigweed [2, 13] | Plant response rating, Foxtail, Giant [4, 16] | Morningglory plant response rating (0 to 100 scale) [6, 14] | Foxtail, Green plant response rating (0 to 100 scale) [7, 14] | Plant response rating, Foxtail, Green [7, 15] | Plant response rating, Foxtail, Green [7, 16] | Plant response rating, Goosegrass [8, 16]
55: Plant response rating, Foxtail, Giant [4, 20] | Plant response rating, Morningglory [6, 19]
40: Plant response rating, Bromegrass, Downy [3, 17] | Plant response rating, Foxtail, Green [7, 13]
20: Plant response rating, Foxtail, Giant [4, 19] | Plant response rating, Morningglory [9, 23]
65: Plant response rating, Foxtail, Giant [4, 13] | Plant response rating, Morningglory [6, 20] | Plant response rating, Goosegrass [8, 13]
90: Plant response rating, Cocklebur [1, 16] | Plant response rating, Cocklebur [1, 17] | Plant response rating, Foxtail, Giant [4, 17] | Kochia plant response rating (0 to 100 scale) (kochia (Kochia scoparia); [14]) | Morningglory plant response rating [9, 21] | Plant response rating, Morningglory [9, 22]
10: Plant response rating, Cocklebur [1, 19] | Plant response rating, Wheat [5, 17]
5: Plant response rating, Bromegrass, Downy [3, 13] | Bromegrass, Downy plant response rating (0 to 100 scale) [3, 14] | Plant response rating, Bromegrass, Downy [3, 15] | Plant response rating, Wheat [5, 13] | Wheat plant response rating (0 to 100 scale) [5, 14] | Plant response rating, Wheat [5, 16] | Plant response rating, Foxtail, Green [7, 19]

O=C1CCCC(O)=C1C(=O)c1cnc(-c2cccc(Br)c2)n(-c2ccccc2)c1=O [Compound 69]
45: Plant response rating, Kochia (kochia (Kochia scoparia); [20])
100: Pigweed plant response rating (0 to 100 scale) [2, 14] | Plant response rating, Pigweed [2, 16] | Plant response rating, Pigweed [2, 19] | Plant response rating, Pigweed [2, 20] | Plant response rating, Foxtail, Green [7, 16] | Plant response rating, Goosegrass [8, 19] | Plant response rating, Goosegrass [8, 20] | Morningglory plant response rating [9, 21] | Plant response rating, Morningglory [9, 22] | Velvetleaf plant response rating [11, 21] | Plant response rating, Velvetleaf [11, 22] | Plant response rating, Velvetleaf [11, 24] | Plant response rating, Crabgrass, Large [12, 22] | Plant response rating, Crabgrass, Large [12, 24]
80: Plant response rating, Foxtail, Giant [4, 25] | Goosegrass plant response rating (0 to 100 scale) [8, 14] | Plant response rating, Kochia (kochia (Kochia scoparia); [16]) | Crabgrass, Large plant response rating [12, 21]
40: Plant response rating, Bromegrass, Downy [3, 13]
0: Plant response rating, Cocklebur [1, 25] | Plant response rating, Cocklebur [1, 13] | Cocklebur plant response rating (0 to 100 scale) [1, 14] | Plant response rating, Cocklebur [1, 26] | Plant response rating, Cocklebur [1, 18] | Plant response rating, Cocklebur [1, 19] | Plant response rating, Bromegrass, Downy [3, 26] | Plant response rating, Bromegrass, Downy [3, 18] | Plant response rating, Bromegrass, Downy [3, 19] | Plant response rating, Bromegrass, Downy [3, 20] | Plant response rating, Foxtail, Giant [4, 26] | Plant response rating, Wheat [5, 25] | Plant response rating, Wheat [5, 18] | Plant response rating, Wheat [5, 19] | Plant response rating, Wheat [5, 20] | Plant response rating, Morningglory [6, 26] | Plant response rating, Morningglory [6, 18] | Plant response rating, Morningglory [6, 19] | Plant response rating, Morningglory [6, 20] | Plant response rating, Kochia (kochia (Kochia scoparia); [18]) | Plant response rating, Morningglory [9, 23] | Wheat plant response rating [10, 21] | Plant response rating, Wheat [10, 23]
65: Plant response rating, Morningglory [6, 25]
20: Plant response rating, Cocklebur [1, 16] | Plant response rating, Kochia (kochia (Kochia scoparia); [19])
98: Plant response rating, Pigweed [2, 13] | Plant response rating, Pigweed [2, 18] | Foxtail, Giant plant response rating (0 to 100 scale) [4, 14] | Plant response rating, Foxtail, Giant [4, 16] | Foxtail, Green plant response rating (0 to 100 scale) [7, 14]
5: Plant response rating, Foxtail, Giant [4, 18] | Plant response rating, Wheat [5, 13] | Wheat plant response rating (0 to 100 scale) [5, 14]
10: Plant response rating, Cocklebur [1, 20] | Plant response rating, Wheat [5, 16] | Plant response rating, Wheat [10, 22] | Plant response rating, Wheat [10, 24]
60: Plant response rating, Kochia (kochia (Kochia scoparia); [25]) | Plant response rating, Kochia (kochia (Kochia scoparia); [13])
75: Plant response rating, Foxtail, Giant [4, 19] | Plant response rating, Morningglory [6, 16] | Plant response rating, Foxtail, Green [7, 25] | Plant response rating, Goosegrass [8, 25] | Plant response rating, Goosegrass [8, 13]
30: Plant response rating, Bromegrass, Downy [3, 25]
90: Plant response rating, Foxtail, Giant [4, 20] | Plant response rating, Crabgrass, Large [12, 23]
85: Plant response rating, Foxtail, Green [7, 20] | Plant response rating, Goosegrass [8, 16]
70: Plant response rating, Bromegrass, Downy [3, 16] | Plant response rating, Morningglory [6, 13] | Morningglory plant response rating (0 to 100 scale) [6, 14] | Plant response rating, Foxtail, Green [7, 19] | Kochia plant response rating (0 to 100 scale) (kochia (Kochia scoparia); [14]) | Plant response rating, Velvetleaf [11, 23]
50: Plant response rating, Morningglory [9, 24]
95: Plant response rating, Pigweed [2, 25] | Plant response rating, Pigweed [2, 26] | Plant response rating, Foxtail, Giant [4, 13] | Plant response rating, Foxtail, Green [7, 13] | Plant response rating, Goosegrass [8, 18]
55: Bromegrass, Downy plant response rating (0 to 100 scale) [3, 14] | Plant response rating, Goosegrass [8, 26]
